Key:
[1] = Nonenzymatic reactivity of the 8,9-double bond with GSH (absorbance 330 nm); type: physicochemical; conditions: 3.25 mM GSH, pH 7.4, 1 h, 30° C.
Source text: Reaction of the 8,9-double bond with GSH was followed spectrophotometrically at 330 nm.
The sulfhydryl group of GSH is a potent nucleophile that rapidly reacts with most electrophilic α,β-unsaturated carbonyl groups via a Michael-addition mechanism.

UO-31 = conditions: UO-31, Renal; cited from earlier work
NCI-H226 = conditions: NCI-H226, Non-Small Cell Lung, cited from earlier work
NCI-H522 = conditions: NCI-H522, Non-Small Cell Lung, cited from earlier work
COLO 205 = conditions: COLO 205, Colon, cited from earlier work
HCC-2998 = conditions: HCC-2998, Colon, cited from earlier work
HT29 = conditions: HT29, Colon, cited from earlier work
SF-268 = conditions: SF-268, Central Nervous System, cited from earlier work
SF-539 = conditions: SF-539, Central Nervous System, cited from earlier work
SNB-75 = conditions: SNB-75, Central Nervous System, cited from earlier work
LOX IMVI = conditions: cited from earlier work
M14 = conditions: M14, Melanoma, cited from earlier work
SK-MEL-28 = conditions: SK-MEL-28, Melanoma, cited from earlier work
OVCAR-5 = conditions: OVCAR-5, Ovarian; cited from earlier work
SK-OV-3 = conditions: SK-OV-3, Ovarian, cited from earlier work
A498 = conditions: A498, Renal, cited from earlier work
ACHN = conditions: Renal; cited from earlier work
SN12C = conditions: cited from earlier work
NCI/ADR-RES = conditions: cited from earlier work
MDA-MB 231/ATCC = conditions: cited from earlier work
MDA-MB 435 = conditions: MDA-MB 435, Breast, cited from earlier work

Q: With CC1=C(CO)C2=C(C)C3(CC3)[C@@](C)(O)C(=O)C2=C1 [Irofulven, 6-hydroxymethylacylfulvene] as the compound, how does the “reactivity of the α,β-unsaturated ketone with GSH” value [1] read?
A: Its value is “relatively resistant to nucleophilic attack”.

Q: What about the GI50 (UO-31) of the same compound?
A: Its GI50 is 200 nM.

Q: What about the TGI (UO-31) of the same compound?
A: Its TGI is 5.01E−07.

Q: And the “log(GI50)” value (UO-31)?
A: Its value is −6.7.

Q: What about the “log(TGI)” value (UO-31) of the same compound?
A: Its value is −6.3.

Q: What about the GI50 (NCI-H226) of the same compound?
A: The GI50 was 200 nM.

Q: And the TGI (NCI-H226)?
A: Its TGI is 5.01E−07.

Q: And the “log(GI50)” value (NCI-H226)?
A: Its value is −6.7.

Q: And the “log(LC50)” value (NCI-H226)?
A: Its value is −5.2.

Q: And the “log(TGI)” value (NCI-H226)?
A: Its value is −6.3.

Q: What about the CC50 (NCI-H226; read-out: LC50) of the same compound?
A: The CC50 was 6310 nM.

Q: And the GI50 (NCI-H522)?
A: The GI50 was 158 nM.

Q: And the TGI (NCI-H522)?
A: Its TGI is 6.31E−07.

Q: What about the “log(GI50)” value (NCI-H522) of the same compound?
A: The value was −6.8.

Q: And the “log(LC50)” value (NCI-H522)?
A: The value was −5.1.

Q: And the “log(TGI)” value (NCI-H522)?
A: The value was −6.2.

Q: What about the CC50 (NCI-H522; read-out: LC50) of the same compound?
A: The CC50 was 7940 nM.

Q: What about the GI50 (COLO 205) of the same compound?
A: Its GI50 is 158 nM.

Q: And the TGI (COLO 205)?
A: The TGI was 5.01E−07.

Q: And the “log(GI50)” value (COLO 205)?
A: Its value is −6.8.

Q: What about the “log(LC50)” value (COLO 205) of the same compound?
A: Its value is −6.2.

Q: And the “log(TGI)” value (COLO 205)?
A: Its value is −6.3.

Q: What about the CC50 (COLO 205; read-out: LC50) of the same compound?
A: The CC50 was 631 nM.

Q: And the GI50 (HCC-2998)?
A: Its GI50 is 158 nM.

Q: What about the TGI (HCC-2998) of the same compound?
A: Its TGI is 3.16E−07.

Q: And the “log(GI50)” value (HCC-2998)?
A: Its value is −6.8.

Q: What about the “log(LC50)” value (HCC-2998) of the same compound?
A: Its value is −6.2.

Q: And the “log(TGI)” value (HCC-2998)?
A: Its value is −6.5.

Q: What about the CC50 (HCC-2998; read-out: LC50) of the same compound?
A: The CC50 was 631 nM.

Q: What about the GI50 (HT29) of the same compound?
A: Its GI50 is 251 nM.

Q: And the TGI (HT29)?
A: The TGI was 1.26E−06.

Q: What about the “log(GI50)” value (HT29) of the same compound?
A: Its value is −6.6.

Q: And the “log(TGI)” value (HT29)?
A: The value was −5.9.

Q: And the CC50 (HT29; read-out: LC50)?
A: The CC50 was ≥ 100000 nM.

Q: What about the GI50 (SF-268) of the same compound?
A: Its GI50 is 251 nM.

Q: What about the TGI (SF-268) of the same compound?
A: Its TGI is 2.51E−06.

Q: And the “log(GI50)” value (SF-268)?
A: The value was −6.6.

Q: What about the “log(TGI)” value (SF-268) of the same compound?
A: The value was −5.6.

Q: What about the CC50 (SF-268; read-out: LC50) of the same compound?
A: The CC50 was ≥ 100000 nM.

Q: And the GI50 (SF-539)?
A: The GI50 was 158 nM.

Q: And the TGI (SF-539)?
A: The TGI was 5.01E−07.

Q: And the “log(GI50)” value (SF-539)?
A: The value was −6.8.

Q: What about the “log(LC50)” value (SF-539) of the same compound?
A: The value was −6.2.

Q: What about the “log(TGI)” value (SF-539) of the same compound?
A: The value was −6.3.

Q: What about the CC50 (SF-539; read-out: LC50) of the same compound?
A: The CC50 was 631 nM.

Q: And the GI50 (SNB-75)?
A: The GI50 was 200 nM.

Q: What about the TGI (SNB-75) of the same compound?
A: The TGI was 5.01E−07.

Q: And the “log(GI50)” value (SNB-75)?
A: Its value is −6.7.

Q: What about the “log(LC50)” value (SNB-75) of the same compound?
A: Its value is −5.7.

Q: And the “log(TGI)” value (SNB-75)?
A: The value was −6.3.

Q: And the CC50 (SNB-75; read-out: LC50)?
A: Its CC50 is 2000 nM.

Q: What about the GI50 (LOX IMVI; Melanoma) of the same compound?
A: Its GI50 is 631 nM.

Q: What about the TGI (LOX IMVI; Melanoma) of the same compound?
A: Its TGI is 3.16E−06.

Q: And the “log(GI50)” value (LOX IMVI; Melanoma)?
A: Its value is −6.2.

Q: What about the “log(LC50)” value (LOX IMVI; Melanoma) of the same compound?
A: Its value is −4.4.

Q: And the “log(TGI)” value (LOX IMVI; Melanoma)?
A: Its value is −5.5.

Q: What about the CC50 (LOX IMVI; read-out: LC50, Melanoma) of the same compound?
A: Its CC50 is 39800 nM.

Q: What about the GI50 (M14) of the same compound?
A: The GI50 was 251 nM.

Q: What about the TGI (M14) of the same compound?
A: Its TGI is 6.31E−07.

Q: What about the “log(GI50)” value (M14) of the same compound?
A: The value was −6.6.

Q: And the “log(LC50)” value (M14)?
A: Its value is −5.7.

Q: What about the “log(TGI)” value (M14) of the same compound?
A: Its value is −6.2.

Q: And the CC50 (M14; read-out: LC50)?
A: The CC50 was 2000 nM.

Q: And the GI50 (SK-MEL-28)?
A: The GI50 was 631 nM.

Q: What about the TGI (SK-MEL-28) of the same compound?
A: Its TGI is 1.58E−06.

Q: What about the “log(GI50)” value (SK-MEL-28) of the same compound?
A: The value was −6.2.

Q: What about the “log(LC50)” value (SK-MEL-28) of the same compound?
A: The value was −4.7.

Q: What about the “log(TGI)” value (SK-MEL-28) of the same compound?
A: Its value is −5.8.

Q: What about the CC50 (SK-MEL-28; read-out: LC50) of the same compound?
A: The CC50 was 20000 nM.

Q: What about the GI50 (OVCAR-5) of the same compound?
A: The GI50 was 158 nM.

Q: And the TGI (OVCAR-5)?
A: The TGI was 5.01E−07.

Q: And the “log(GI50)” value (OVCAR-5)?
A: The value was −6.8.

Q: And the “log(LC50)” value (OVCAR-5)?
A: The value was −4.3.

Q: What about the “log(TGI)” value (OVCAR-5) of the same compound?
A: The value was −6.3.

Q: What about the GI50 (SK-OV-3) of the same compound?
A: The GI50 was 251 nM.

Q: What about the TGI (SK-OV-3) of the same compound?
A: Its TGI is 1.00E−06.

Q: What about the “log(GI50)” value (SK-OV-3) of the same compound?
A: The value was −6.6.

Q: And the “log(LC50)” value (SK-OV-3)?
A: Its value is −5.

Q: What about the “log(TGI)” value (SK-OV-3) of the same compound?
A: The value was −6.

Q: And the CC50 (SK-OV-3; read-out: LC50)?
A: Its CC50 is 10000 nM.

Q: And the GI50 (A498)?
A: Its GI50 is 200 nM.

Q: What about the TGI (A498) of the same compound?
A: Its TGI is 5.01E−07.

Q: And the “log(GI50)” value (A498)?
A: The value was −6.7.

Q: And the “log(LC50)” value (A498)?
A: The value was −5.7.

Q: And the “log(TGI)” value (A498)?
A: The value was −6.3.

Q: What about the CC50 (A498; read-out: LC50) of the same compound?
A: Its CC50 is 2000 nM.

Q: And the GI50 (ACHN)?
A: The GI50 was 251 nM.

Q: And the TGI (ACHN)?
A: Its TGI is 1.00E−06.

Q: What about the “log(GI50)” value (ACHN) of the same compound?
A: The value was −6.6.

Q: And the “log(TGI)” value (ACHN)?
A: The value was −6.

Q: What about the GI50 (SN12C; Renal) of the same compound?
A: The GI50 was 398 nM.

Q: What about the TGI (SN12C; Renal) of the same compound?
A: Its TGI is 5.01E−06.

Q: And the “log(GI50)” value (SN12C; Renal)?
A: The value was −6.4.

Q: What about the “log(LC50)” value (SN12C; Renal) of the same compound?
A: Its value is −4.3.

Q: And the “log(TGI)” value (SN12C; Renal)?
A: The value was −5.3.

Q: And the CC50 (SN12C; read-out: LC50, Renal)?
A: Its CC50 is 50100 nM.

Q: What about the GI50 (NCI/ADR-RES; Breast) of the same compound?
A: Its GI50 is 251 nM.

Q: What about the TGI (NCI/ADR-RES; Breast) of the same compound?
A: The TGI was 7.94E−07.

Q: And the “log(GI50)” value (NCI/ADR-RES; Breast)?
A: The value was −6.6.

Q: And the “log(LC50)” value (NCI/ADR-RES; Breast)?
A: The value was −5.3.

Q: What about the “log(TGI)” value (NCI/ADR-RES; Breast) of the same compound?
A: The value was −6.1.

Q: What about the CC50 (NCI/ADR-RES; read-out: LC50, Breast) of the same compound?
A: Its CC50 is 5010 nM.

Q: What about the GI50 (MDA-MB 231/ATCC; Breast) of the same compound?
A: Its GI50 is 316 nM.

Q: What about the TGI (MDA-MB 231/ATCC; Breast) of the same compound?
A: The TGI was 1.26E−06.

Q: What about the “log(GI50)” value (MDA-MB 231/ATCC; Breast) of the same compound?
A: The value was −6.5.

Q: And the “log(LC50)” value (MDA-MB 231/ATCC; Breast)?
A: Its value is −4.1.

Q: What about the “log(TGI)” value (MDA-MB 231/ATCC; Breast) of the same compound?
A: The value was −5.9.

Q: What about the CC50 (MDA-MB 231/ATCC; read-out: LC50, Breast) of the same compound?
A: The CC50 was 79400 nM.

Q: What about the GI50 (MDA-MB 435) of the same compound?
A: The GI50 was 1580 nM.

Q: And the TGI (MDA-MB 435)?
A: Its TGI is 6.31E−06.

Q: And the “log(GI50)” value (MDA-MB 435)?
A: The value was −5.8.

Q: And the “log(LC50)” value (MDA-MB 435)?
A: Its value is −4.4.

Q: What about the “log(TGI)” value (MDA-MB 435) of the same compound?
A: Its value is −5.2.

Q: And the CC50 (MDA-MB 435; read-out: LC50)?
A: The CC50 was 39800 nM.
